Numbers after ± are expanded uncertainties.
How the values were obtained:
[1] = Liquid, Ebulliometric method (Recirculating still)
[2] = refractive index (Na D-line) (dimensionless); settings: 101.33 kPa, Liquid, Standard Abbe refractometry
[3] = refractive index (Na D-line) (dimensionless); xn = mol fraction of the nth substance listed; settings: 293.15 K, 101.3 kPa, Liquid, Standard Abbe refractometry

C=CCCCC [hex-1-ene]
Settings | refractive index | vapor or sublimation pressure [kPa]
[1], 298.99 K | – | 25.68 ± 0.36
[1], 302.85 K | – | 30.13 ± 0.36
[1], 306.73 K | – | 35.19 ± 0.37
[1], 310.9 K | – | 41.41 ± 0.38
[1], 316.17 K | – | 50.46 ± 0.39
[1], 320.92 K | – | 59.91 ± 0.4
[1], 323.15 K | – | 64.82 ± 0.41
[1], 325.41 K | – | 70.09 ± 0.42
[1], 329.11 K | – | 79.46 ± 0.43
[1], 330.99 K | – | 84.63 ± 0.44
[1], 332.94 K | – | 90.24 ± 0.48
[1], 333.15 K | – | 90.94 ± 0.48
[1], 336.04 K | – | 99.73 ± 0.46
[2], 293.15 K | 1.3881 ± 0.0003 | –
[2], 298.15 K | 1.3851 ± 0.0007 | –

C=CCCCC [hex-1-ene] + c1ccsc1
Settings | refractive index
[3], x2 = 0 | 1.3881 ± 0.0003

CCCCCC [hexane]
Settings | refractive index | vapor or sublimation pressure [kPa]
[1], 307.31 K | – | 29.67 ± 0.36
[1], 311.36 K | – | 34.86 ± 0.37
[1], 314.93 K | – | 40.02 ± 0.37
[1], 316.81 K | – | 43.01 ± 0.38
[1], 321.97 K | – | 52.02 ± 0.39
[1], 323.15 K | – | 54.25 ± 0.4
[1], 326.94 K | – | 62.11 ± 0.4
[1], 331 K | – | 71.39 ± 0.42
[1], 335.54 K | – | 83.09 ± 0.43
[1], 338.15 K | – | 90.44 ± 0.45
[1], 338.59 K | – | 91.73 ± 0.45
[1], 342 K | – | 102.27 ± 0.46
[2], 293.15 K | 1.3751 ± 0.0003 | –
[2], 298.15 K | 1.3724 ± 0.0007 | –

CCCCCC [hexane] + c1ccsc1
Settings | refractive index
[3], x2 = 0 | 1.3751 ± 0.0003

c1ccsc1 [thiophene]
Settings | refractive index, 293.15 K | refractive index, 298.15 K | vapor or sublimation pressure, 323.15 K [kPa] | vapor or sublimation pressure, 333.15 K [kPa] | vapor or sublimation pressure, 338.15 K [kPa]
[1] | – | – | 31.21 ± 0.4 | 45.44 ± 0.42 | 54.27 ± 0.44
[2] | 1.5287 ± 0.0003 | 1.5255 ± 0.0007 | – | – | –

c1ccsc1 [thiophene] + C=CCCCC
[3]
Settings | refractive index
x1 = 0.024 | 1.3903 ± 0.0004
x1 = 0.051 | 1.3926 ± 0.0004
x1 = 0.076 | 1.3949 ± 0.0004
x1 = 0.094 | 1.3966 ± 0.0004
x1 = 0.185 | 1.4055 ± 0.0004
x1 = 0.288 | 1.4163 ± 0.0004
x1 = 0.378 | 1.4266 ± 0.0004
x1 = 0.486 | 1.4402 ± 0.0004
x1 = 0.579 | 1.453 ± 0.0004
x1 = 0.683 | 1.4688 ± 0.0005
x1 = 0.788 | 1.4866 ± 0.0005
x1 = 0.89 | 1.5058 ± 0.0005
x1 = 0.91 | 1.5097 ± 0.0005
x1 = 0.948 | 1.5174 ± 0.0005
x1 = 0.974 | 1.523 ± 0.0005
x1 = 1 | 1.5287 ± 0.0003

c1ccsc1 [thiophene] + CCCCCC
[3]
Settings | refractive index
x1 = 0.027 | 1.3774 ± 0.0004
x1 = 0.05 | 1.3794 ± 0.0004
x1 = 0.08 | 1.3822 ± 0.0004
x1 = 0.096 | 1.3836 ± 0.0004
x1 = 0.194 | 1.3933 ± 0.0004
x1 = 0.292 | 1.4039 ± 0.0004
x1 = 0.394 | 1.4161 ± 0.0004
x1 = 0.494 | 1.4296 ± 0.0004
x1 = 0.588 | 1.4438 ± 0.0005
x1 = 0.697 | 1.4624 ± 0.0005
x1 = 0.797 | 1.4814 ± 0.0005
x1 = 0.897 | 1.5034 ± 0.0006
x1 = 0.919 | 1.5084 ± 0.0006
x1 = 0.949 | 1.5158 ± 0.0006
x1 = 0.974 | 1.5219 ± 0.0006
x1 = 1 | 1.5287 ± 0.0003

Cc1ccccc1 [toluene]
Settings | refractive index
[2], 298.15 K | 1.4939 ± 0.0007
